Experimental data: patent US6689773B2, “Uracil substituted phenyl sulfamoyl carboxamides” (BASF Aktiengesellschaft, priority 2000, dated 2004)

Key:
Type in all cases: in vivo
[1] = tested on: TRZAW, Winter wheat, Tritium Aestivum, L. (Winter); assay: Preemergence herbicidal evaluation (Example 148); conditions: rating scale 0-9, two to four weeks after treatment
Experimental: (§1) The scale is based upon a visual observation of plant stand, vigor, malformation, size, chlorosis and overall plant appearance as compared with a control.
(§2) The herbicidal activity of the compounds of the present invention was evaluated by the following tests wherein the seeds of a variety of monocotyledonous and dicotyledonous plants were separately mixed with potting soil and planted on top of approximately one inch of soil in separate pint cups. After planting, the cups were sprayed with the selected aqueous acetone solution containing test compound in sufficient quantity to provide the equivalent of about 0.125 to 0.250 kg per hectare of test compound per cup. The treated cups were then placed on greenhouse benches, watered and cared for in accordance with conventional greenhouse procedures. From two to four weeks after treatment, the tests were terminated and each cup was examined and rated according to the rating system provided in Example 94. When more than one test was performed for a given compound, the data were averaged.

[2] = tested on: ABUTH, Velvetleaf, Abutilon theophrasti, Medic.; assay: Preemergence herbicidal evaluation (Example 148); conditions: rating scale 0-9, two to four weeks after treatment
Experimental: as §1, §2

[3] = tested on: ALOMY, Blackgrass, Alopecurus myosuroides; assay: Preemergence herbicidal evaluation (Example 148); conditions: rating scale 0-9, two to four weeks after treatment
Experimental: as §1, §2

[4] = tested on: SETVI, Green foxtail, Setaria viridis, (L.)Beau; assay: Preemergence herbicidal evaluation (Example 148); conditions: rating scale 0-9, two to four weeks after treatment
Experimental: as §1, §2

[5] = tested on: ZEAMX, Field corn, Zea mays L.; assay: Preemergence herbicidal evaluation (Example 148); conditions: rating scale 0-9, two to four weeks after treatment
Experimental: as §1, §2

[6] = tested on: AMBEL, Ragweed, Common, Ambrosia artemiisifolia, L.; assay: Preemergence herbicidal evaluation (Example 148); conditions: rating scale 0-9, two to four weeks after treatment
Experimental: as §1, §2

[7] = tested on: CHEAL, Lambsquarters, Chenopodium album, L. Common; assay: Preemergence herbicidal evaluation (Example 148); conditions: rating scale 0-9, two to four weeks after treatment
Experimental: as §1, §2

[8] = tested on: IPOHE, Morningglory, Ivyleaf, Ipomoea hederacea, (L)Jacq.; assay: Preemergence herbicidal evaluation (Example 148); conditions: rating scale 0-9, two to four weeks after treatment
Experimental: as §1, §2

[9] = tested on: ECHCG, Barnyardgrass, Echinochloa crusgalli, (L.)Beau; assay: Preemergence herbicidal evaluation (Example 148); conditions: rating scale 0-9, two to four weeks after treatment
Experimental: as §1, §2

[10] = tested on: DIGSA, Crabgrass, (Hairy) L, Digitaria sanguinalis, (L)Scop; assay: Preemergence herbicidal evaluation (Example 148); conditions: rating scale 0-9, two to four weeks after treatment
Experimental: as §1, §2

[11] = tested on: TRZAW, Winter wheat, Tritium Aestivum, L. (Winter); assay: Postemergence herbicidal evaluation (Example 147); conditions: rating scale 0-9, two to three weeks after treatment
Experimental: (§3) Seedling plants were grown in jiffy flats for about two weeks. The test compounds were dispersed in 80/20 acetone/water mixtures containing 1.0% SUN-IT®II, a methylated seed oil, in sufficient quantities to provide the equivalent of about 0.016 to 0.032 kg per hectare of active compound when applied to the plants through a spray nozzle operating at 40 psi for a predetermined time. After spraying, the plants were placed on greenhouse benches and were cared for in accordance with conventional greenhouse procedures. Approximately two to three weeks after treatment, the seedling plants were examined and rated according to the rating scale (0-9) set forth below. Where more than one test is involved for a given compound, the data are averaged. [table] The scale is based upon a visual observation of plant stand, vigor, malformation, size, chlorosis and overall plant appearance as compared with a control. Plant species employed in these evaluations are reported by header abbreviation, common name and scientific name. [table]

[12] = tested on: ABUTH, Velvetleaf, Abutilon theophrasti, Medic.; assay: Postemergence herbicidal evaluation (Example 147); conditions: rating scale 0-9, two to three weeks after treatment
Experimental: as §3

[13] = tested on: ALOMY, Blackgrass, Alopecurus myosuroides; assay: Postemergence herbicidal evaluation (Example 147); conditions: rating scale 0-9, two to three weeks after treatment
Experimental: as §3

[14] = tested on: SETVI, Green foxtail, Setaria viridis, (L.)Beau; assay: Postemergence herbicidal evaluation (Example 147); conditions: rating scale 0-9, two to three weeks after treatment
Experimental: as §3

[15] = tested on: GLXMA, Soybean, Glycine max, (L.) Merr.; assay: Postemergence herbicidal evaluation (Example 147); conditions: rating scale 0-9, two to three weeks after treatment
Experimental: as §3

[16] = tested on: ZEAMX, Field corn, Zea mays L.; assay: Postemergence herbicidal evaluation (Example 147); conditions: rating scale 0-9, two to three weeks after treatment
Experimental: as §3

[17] = tested on: AMBEL, Ragweed, Common, Ambrosia artemiisifolia, L.; assay: Postemergence herbicidal evaluation (Example 147); conditions: rating scale 0-9, two to three weeks after treatment
Experimental: as §3

[18] = tested on: CHEAL, Lambsquarters, Chenopodium album, L. Common; assay: Postemergence herbicidal evaluation (Example 147); conditions: rating scale 0-9, two to three weeks after treatment
Experimental: as §3

[19] = tested on: XANST, Cocklebur, Xanthium strumariam; assay: Postemergence herbicidal evaluation (Example 147); conditions: rating scale 0-9, two to three weeks after treatment
Experimental: as §3

[20] = tested on: IPOHE, Morningglory, Ivyleaf, Ipomoea hederacea, (L)Jacq.; assay: Postemergence herbicidal evaluation (Example 147); conditions: rating scale 0-9, two to three weeks after treatment
Experimental: as §3

[21] = tested on: ECHCG, Barnyardgrass, Echinochloa crusgalli, (L.)Beau; assay: Postemergence herbicidal evaluation (Example 147); conditions: rating scale 0-9, two to three weeks after treatment
Experimental: as §3

[22] = tested on: DIGSA, Crabgrass, (Hairy) L, Digitaria sanguinalis, (L)Scop; assay: Postemergence herbicidal evaluation (Example 147); conditions: rating scale 0-9, two to three weeks after treatment
Experimental: as §3

## CCC(C)NS(=O)(=O)NC(=O)c1cc(-n2c(=O)cc(C(F)(F)F)n(C)c2=O)c(F)cc1Cl (centres unmarked) [Example 64]
[1]; rate 0.125 kg/ha
  Preemergence herbicidal rating TRZAW: 0.0
[1]; rate 0.25 kg/ha
  Preemergence herbicidal rating TRZAW: 3.0
[2]; rate 0.125 kg/ha
  Preemergence herbicidal rating ABUTH: 9.0
[2]; rate 0.25 kg/ha
  Preemergence herbicidal rating ABUTH: 9.0
[3]; rate 0.125 kg/ha
  Preemergence herbicidal rating ALMOY: 0.0
[3]; rate 0.25 kg/ha
  Preemergence herbicidal rating ALMOY: 4.0
[4]; rate 0.125 kg/ha
  Preemergence herbicidal rating SETVI: 8.0
[4]; rate 0.25 kg/ha
  Preemergence herbicidal rating SETVI: 9.0
[5]; rate 0.125 kg/ha
  Preemergence herbicidal rating ZEAMX: 0.0
[5]; rate 0.25 kg/ha
  Preemergence herbicidal rating ZEAMX: 2.0
[6]; rate 0.125 kg/ha
  Preemergence herbicidal rating AMBEL: 9.0
[6]; rate 0.25 kg/ha
  Preemergence herbicidal rating AMBEL: 9.0
[7]; rate 0.125 kg/ha
  Preemergence herbicidal rating CHEAL: 9.0
[7]; rate 0.25 kg/ha
  Preemergence herbicidal rating CHEAL: 9.0
[8]; rate 0.125 kg/ha
  Preemergence herbicidal rating IPOHE: 9.0
[8]; rate 0.25 kg/ha
  Preemergence herbicidal rating IPOHE: 9.0
[9]; rate 0.125 kg/ha
  Preemergence herbicidal rating ECHCG: 3.0
[9]; rate 0.25 kg/ha
  Preemergence herbicidal rating ECHCG: 7.0
[10]; rate 0.125 kg/ha
  Preemergence herbicidal rating DIGSA: 8.0
[10]; rate 0.25 kg/ha
  Preemergence herbicidal rating DIGSA: 9.0
[11]; rate 0.016 kg/ha
  Postemergence herbicidal rating TRZAW: 6.0
[11]; rate 0.032 kg/ha
  Postemergence herbicidal rating TRZAW: 7.0
[12]; rate 0.016 kg/ha
  Postemergence herbicidal rating ABUTH: 9.0
[12]; rate 0.032 kg/ha
  Postemergence herbicidal rating ABUTH: 9.0
[13]; rate 0.016 kg/ha
  Postemergence herbicidal rating ALMOY: 3.0
[13]; rate 0.032 kg/ha
  Postemergence herbicidal rating ALMOY: 5.0
[14]; rate 0.016 kg/ha
  Postemergence herbicidal rating SETVI: 8.0
[14]; rate 0.032 kg/ha
  Postemergence herbicidal rating SETVI: 9.0
[15]; rate 0.016 kg/ha
  Postemergence herbicidal rating GLXMA: 7.5
[15]; rate 0.032 kg/ha
  Postemergence herbicidal rating GLXMA: 8.0
[16]; rate 0.016 kg/ha
  Postemergence herbicidal rating ZEAMX: 7.5
[16]; rate 0.032 kg/ha
  Postemergence herbicidal rating ZEAMX: 8.0
[17]; rate 0.016 kg/ha
  Postemergence herbicidal rating AMBEL: 9.0
[17]; rate 0.032 kg/ha
  Postemergence herbicidal rating AMBEL: 9.0
[18]; rate 0.016 kg/ha
  Postemergence herbicidal rating CHEAL: 9.0
[18]; rate 0.032 kg/ha
  Postemergence herbicidal rating CHEAL: 9.0
[19]; rate 0.016 kg/ha
  Postemergence herbicidal rating XANST: 9.0
[19]; rate 0.032 kg/ha
  Postemergence herbicidal rating XANST: 9.0
[20]; rate 0.016 kg/ha
  Postemergence herbicidal rating IPOHE: 9.0
[20]; rate 0.032 kg/ha
  Postemergence herbicidal rating IPOHE: 9.0
[21]; rate 0.016 kg/ha
  Postemergence herbicidal rating ECHCG: 9.0
[21]; rate 0.032 kg/ha
  Postemergence herbicidal rating ECHCG: 9.0
[22]; rate 0.016 kg/ha
  Postemergence herbicidal rating DIGSA: 5.0
[22]; rate 0.032 kg/ha
  Postemergence herbicidal rating DIGSA: 5.0
